Source: patent US6362369B1, “Phthalic acid diamide derivatives fluorine-containing aniline compounds as starting material, agricultural and horticultural insecticides, and a method for application of the insecticides” (Nihon Nohyaku Co., Ltd., priority 1997, dated 2002)

Assays:
Assay type in all cases: in vivo
[1] = system: diamondback moth (Plutella xylostella); assay: Insecticidal effect on diamondback moth (Test Example 1); details: for Insecticidal effect, Test Example 1 / Insecticidal effect (Test Example 1), judged from mortality: diamondback moth; for Insecticidal effect on diamondback moth (Test Example 1), judged grade: mortality judged according to the criterion shown in Test Example 1; for Insecticidal effect (Test Example 1), judged from mortality: judged by the criterion of Test Example 1
Method in brief: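 Triplicate groups of 10 insects were scored: six days after immersion of oviposited Chinese cabbage seedlings and holding at 25 °C post air-drying, hatched larvae were counted. Mortality derived from these counts and insecticidal effect judged by a set criterion.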

[2] = system: common cutworm (Spodoptera Litura); assay: Insecticidal effect on common cutworm (Test Example 2); details: 500 ppm, 25° C.; for Insecticidal effect, Test Example 2: cabbage leaf immersed; for Insecticidal effect, Test Example 2 / Insecticidal effect on common cutworm (Test Example 2), judged grade: eight days after inoculation; for Insecticidal effect on common cutworm (Test Example 2), judged grade / Insecticidal effect (Test Example 2), judged from mortality: cabbage leaf dip; for Insecticidal effect on common cutworm (Test Example 2), judged grade: second-instar larvae; for Insecticidal effect (Test Example 2), judged from mortality: 8 days after inoculation
Method in brief: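 Insecticidal effect was rated from percent mortality of second-instar larvae exposed to air-dried treatment at 25° C for 8 days.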

[3] = system: rice leafroller (Cnaphalocrocis medinalis); assay: Insecticidal effect on rice leafroller (Test Example 3); details: 500 ppm, 25° C., humidity 70%; for Insecticidal effect, Test Example 3: rice lamina immersed; for Insecticidal effect, Test Example 3 / Insecticidal effect on rice leafroller (Test Example 3), judged grade: four days after inoculation; for Insecticidal effect on rice leafroller (Test Example 3), judged grade / Insecticidal effect (Test Example 3), judged from mortality: rice lamina dip; for Insecticidal effect on rice leafroller (Test Example 3), judged grade: third-instar larvae; for Insecticidal effect (Test Example 3), judged from mortality: 4 days after inoculation
Method in brief: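 Insecticidal effect is judged by a predefined criterion from dead/alive counts four days after infesting air-dried lamina with third-instar larvae, kept on moistened filter paper at 25° C, 70% humidity.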

[4] = judged by the mortality criterion of Test Example 1
[5] = second-instar larvae of common cutworm
[6] = third-instar larvae of rice leafroller
[7] = mortality judged by criterion of Test Example 1
[8] = common cutworm second-instar larvae
[9] = rice leafroller third-instar larvae

## CC(C)NC(=O)c1c(I)cccc1C(=O)Nc1ccc(C(F)(F)C(F)(F)C(F)(F)F)cc1Cl [compound 407]
[1]; [4]
  Insecticidal effect, Test Example 1: A (100)
[2]; [5]
  Insecticidal effect, Test Example 2: A (100)
[3]; [6]
  Insecticidal effect, Test Example 3: A (100)

## CC(C)NC(=O)c1cccc(F)c1C(=O)Nc1ccc(C(F)(C(F)(F)F)C(F)(F)F)cc1Cl [compound 561]
[1]
  Insecticidal effect on diamondback moth (Test Example 1), judged grade: A (100)
[2]
  Insecticidal effect on common cutworm (Test Example 2), judged grade: C (89-80)
[3]
  Insecticidal effect on rice leafroller (Test Example 3), judged grade: A (100)

## Cc1cc(Sc2ccc(Cl)cc2)ccc1NC(=O)c1cccc(I)c1C(=O)NC(C)C [compound 404]
[1]; [4]
  Insecticidal effect, Test Example 1: A (100)
[2]; [5]
  Insecticidal effect, Test Example 2: A (100)
[3]; [6]
  Insecticidal effect, Test Example 3: A (100)

## Cc1cc(C(F)(F)C(F)(F)C(F)(F)C(F)(F)F)ccc1NC(=O)c1cccc(I)c1C(=O)NC(C)C [compound 375]
[1]; [4]
  Insecticidal effect, Test Example 1: A (100)
[2]; [5]
  Insecticidal effect, Test Example 2: A (100)
[3]; [6]
  Insecticidal effect, Test Example 3: A (100)

## Cc1cc(Sc2ccc(Cl)cc2)ccc1NC(=O)c1ccccc1C(=O)NC(C)C [compound 77]
[1]; [4]
  Insecticidal effect, Test Example 1: A (100)
[2]; [5]
  Insecticidal effect, Test Example 2: C (89-80)
[3]; [6]
  Insecticidal effect, Test Example 3: A (100)

## COc1ccc(NC(=O)c2cccc(Cl)c2C(=O)NC(C)C)c(C)c1C [compound 124]
[1]; [4]
  Insecticidal effect, Test Example 1: A (100)
[2]; [5]
  Insecticidal effect, Test Example 2: A (100)
[3]; [6]
  Insecticidal effect, Test Example 3: A (100)

## Cc1cc(C(F)(F)C(F)(F)F)ccc1NC(=O)c1ccc(Cl)cc1C(=O)NC(C)(C)C [compound 1278]
[1]; [7]
  Insecticidal effect, Test Example 1: A (100)
[2]; [8]
  Insecticidal effect, Test Example 2: A (100)
[3]; [9]
  Insecticidal effect, Test Example 3: A (100)

## Cc1cc(OC(F)F)ccc1NC(=O)c1ccccc1C(=O)NC(C)C [compound 58]
[1]; [4]
  Insecticidal effect, Test Example 1: A (100)
[2]; [5]
  Insecticidal effect, Test Example 2: A (100)
[3]; [6]
  Insecticidal effect, Test Example 3: A (100)

## CCC(C)(C)NC(=O)c1c(I)cccc1C(=O)Nc1ccc(OC(F)(F)F)cc1C [compound 1566]
[1]
  Insecticidal effect (Test Example 1), judged from mortality: A (100)
[2]; [5]
  Insecticidal effect (Test Example 2), judged from mortality: A (100)
[3]; [6]
  Insecticidal effect (Test Example 3), judged from mortality: A (100)

## CC(C)NC(=O)c1c(C(=O)Nc2ccc(SC(F)(F)C(F)(F)Br)cc2)cccc1[N+](=O)[O-] [compound 628]
[1]
  Insecticidal effect on diamondback moth (Test Example 1), judged grade: A (100)
[2]
  Insecticidal effect on common cutworm (Test Example 2), judged grade: B (99-90)
[3]
  Insecticidal effect on rice leafroller (Test Example 3), judged grade: A (100)

## Cc1cc(OC(F)F)ccc1NC(=O)c1cccc([N+](=O)[O-])c1C(=O)NC(C)C [compound 696, N^1-(4-difluoromethoxy-2-methylphenyl)-N^2-isopropyl-3-nitrophthalic acid diamide]
[1]
  Insecticidal effect on diamondback moth (Test Example 1), judged grade: A (100)
[2]
  Insecticidal effect on common cutworm (Test Example 2), judged grade: A (100)
[3]
  Insecticidal effect on rice leafroller (Test Example 3), judged grade: A (100)

## Cc1cc(C(F)(F)C(F)(F)F)ccc1NC(=O)c1cccc(C(F)(F)F)c1C(=O)NC(C)C [compound 1801]
[1]
  Insecticidal effect (Test Example 1), judged from mortality: A (100)
[2]; [5]
  Insecticidal effect (Test Example 2), judged from mortality: A (100)
[3]; [6]
  Insecticidal effect (Test Example 3), judged from mortality: A (100)

## Cc1cc(C(F)(F)C(F)(F)F)ccc1NC(=O)c1cccc(Cl)c1C(=O)NCc1ccccc1 [compound 1307]
[1]; [7]
  Insecticidal effect, Test Example 1: A (100)
[2]; [8]
  Insecticidal effect, Test Example 2: A (100)
[3]; [9]
  Insecticidal effect, Test Example 3: A (100)

## Cc1cc(C(F)(C(F)(F)F)C(F)(F)F)cc(C)c1NC(=O)c1cccc(I)c1C(=O)NC(C)C [compound 1716]
[1]
  Insecticidal effect (Test Example 1), judged from mortality: A (100)
[2]; [5]
  Insecticidal effect (Test Example 2), judged from mortality: A (100)
[3]; [6]
  Insecticidal effect (Test Example 3), judged from mortality: A (100)

## CC(C)NC(=O)c1cccc(I)c1C(=O)Nc1ccc(OC(F)F)c(C(F)(F)F)c1 [compound 471]
[1]
  Insecticidal effect on diamondback moth (Test Example 1), judged grade: A (100)
[2]
  Insecticidal effect on common cutworm (Test Example 2), judged grade: A (100)
[3]
  Insecticidal effect on rice leafroller (Test Example 3), judged grade: A (100)

## Cc1cc(OC(F)(F)C(F)(Br)C(F)(F)F)ccc1NC(=O)c1cccc(Cl)c1C(=O)NC(C)C (stereo not drawn) [compound 148]
[1]; [4]
  Insecticidal effect, Test Example 1: A (100)
[2]; [5]
  Insecticidal effect, Test Example 2: A (100)
[3]; [6]
  Insecticidal effect, Test Example 3: A (100)

## CON=C(C)c1ccc(NC(=O)c2cccc(I)c2C(=O)NC(C)C)cc1 [compound 1737]
[1]
  Insecticidal effect (Test Example 1), judged from mortality: A (100)
[2]; [5]
  Insecticidal effect (Test Example 2), judged from mortality: C (89-80)
[3]; [6]
  Insecticidal effect (Test Example 3), judged from mortality: A (100)

## CC(C)NC(=O)c1c(I)cccc1C(=O)Nc1ccc(F)c(F)c1 [compound 360]
[1]; [4]
  Insecticidal effect, Test Example 1: A (100)
[2]; [5]
  Insecticidal effect, Test Example 2: D (79-50)
[3]; [6]
  Insecticidal effect, Test Example 3: A (100)

## Cc1cc(C(F)(F)C(F)(F)C(F)(F)C(F)(F)F)ccc1NC(=O)c1c(F)cccc1C(=O)NC(C)C [compound 557]
[1]
  Insecticidal effect on diamondback moth (Test Example 1), judged grade: A (100)
[2]
  Insecticidal effect on common cutworm (Test Example 2), judged grade: C (89-80)
[3]
  Insecticidal effect on rice leafroller (Test Example 3), judged grade: B (99-90)

## Cc1cc(C(F)(F)C(F)(F)C(F)(F)F)ccc1NC(=O)c1cccc(I)c1C(=O)NC(C)C [compound 373]
[1]; [4]
  Insecticidal effect, Test Example 1: A (100)
[2]; [5]
  Insecticidal effect, Test Example 2: A (100)
[3]; [6]
  Insecticidal effect, Test Example 3: A (100)

## CC(C)(C)NC(=O)c1c(I)cccc1C(=O)Nc1ccc2oc(C(F)(F)C(F)(F)C(F)(F)F)nc2c1 [compound 1639]
[1]
  Insecticidal effect (Test Example 1), judged from mortality: A (100)
[2]; [5]
  Insecticidal effect (Test Example 2), judged from mortality: A (100)
[3]; [6]
  Insecticidal effect (Test Example 3), judged from mortality: A (100)

## Cc1cc(C(F)(F)C(F)(F)C(F)(F)C(F)(F)C(F)(F)C(F)(F)F)ccc1NC(=O)c1cccc(Cl)c1C(=O)NC(C)C [compound 133]
[1]; [4]
  Insecticidal effect, Test Example 1: A (100)
[2]; [5]
  Insecticidal effect, Test Example 2: A (100)
[3]; [6]
  Insecticidal effect, Test Example 3: A (100)

## CCc1cc(OC(F)(F)F)ccc1NC(=O)c1cccc(I)c1C(=O)NC(C)(C)C [compound 1211]
[1]; [7]
  Insecticidal effect, Test Example 1: A (100)
[2]; [8]
  Insecticidal effect, Test Example 2: A (100)
[3]; [9]
  Insecticidal effect, Test Example 3: A (100)

## CC(C)NC(=O)c1cccc(F)c1C(=O)Nc1ccc(OC(F)F)cc1C(F)(F)F [compound 579]
[1]
  Insecticidal effect on diamondback moth (Test Example 1), judged grade: A (100)
[2]
  Insecticidal effect on common cutworm (Test Example 2), judged grade: A (100)
[3]
  Insecticidal effect on rice leafroller (Test Example 3), judged grade: A (100)

## Cc1cc(C(F)(C(F)(F)F)C(F)(F)F)ccc1NC(=O)c1cccc(I)c1C(=O)NC(C)C [compound 374]
[1]; [4]
  Insecticidal effect, Test Example 1: A (100)
[2]; [5]
  Insecticidal effect, Test Example 2: A (100)
[3]; [6]
  Insecticidal effect, Test Example 3: A (100)

## Cc1cc(OC(F)(F)Br)ccc1NC(=O)c1cccc(Cl)c1C(=O)NC(C)(C)C [compound 1050]
[1]; [7]
  Insecticidal effect, Test Example 1: A (100)
[2]; [8]
  Insecticidal effect, Test Example 2: A (100)
[3]; [9]
  Insecticidal effect, Test Example 3: A (100)

## Cc1cc(I)ccc1NC(=O)c1cccc([N+](=O)[O-])c1C(=O)NC(C)C [compound 673]
[1]
  Insecticidal effect on diamondback moth (Test Example 1), judged grade: A (100)
[2]
  Insecticidal effect on common cutworm (Test Example 2), judged grade: D (79-50)
[3]
  Insecticidal effect on rice leafroller (Test Example 3), judged grade: D (79-50)

## Cc1cc(OC(F)F)ccc1NC(=O)c1c(I)cccc1C(=O)NC(C)C [compound 469]
[1]
  Insecticidal effect on diamondback moth (Test Example 1), judged grade: A (100)
[2]
  Insecticidal effect on common cutworm (Test Example 2), judged grade: A (100)
[3]
  Insecticidal effect on rice leafroller (Test Example 3), judged grade: D (79-50)

## Cc1cc(F)ccc1NC(=O)c1cccc(Br)c1C(=O)NC(C)C [compound 275]
[1]; [4]
  Insecticidal effect, Test Example 1: A (100)
[2]; [5]
  Insecticidal effect, Test Example 2: D (79-50)
[3]; [6]
  Insecticidal effect, Test Example 3: A (100)

## Cc1cc(C(F)(F)C(F)(F)F)ccc1NC(=O)c1cccc(Cl)c1C(=O)NCCCO [compound 1399]
[1]; [7]
  Insecticidal effect, Test Example 1: A (100)
[2]; [8]
  Insecticidal effect, Test Example 2: A (100)
[3]; [9]
  Insecticidal effect, Test Example 3: A (100)
